Laboratory results: patent US20220380319A1 (Bial - R&D Investments, S.A., priority 2019, published 2022)
In brackets after ≈: the same amount, converted by molar mass.

Assays:
acid ceramidase = molecular target: T1, acid ceramidase (Homo sapiens, UniProt Q13510); assay: Acid ceramidase inhibition, biochemical fluorescent assay with cell lysates overexpressing acid ceramidase, substrate Rbm14-12; conditions: substrate Rbm14-12 6.3 μM, pH 4.5, 1 hr preincubation at RT
T1 construct: Cell lysates overexpressing acid ceramidase were used as the enzyme source; expressed in transfected cells
T1 sequence (Q13510 22-395): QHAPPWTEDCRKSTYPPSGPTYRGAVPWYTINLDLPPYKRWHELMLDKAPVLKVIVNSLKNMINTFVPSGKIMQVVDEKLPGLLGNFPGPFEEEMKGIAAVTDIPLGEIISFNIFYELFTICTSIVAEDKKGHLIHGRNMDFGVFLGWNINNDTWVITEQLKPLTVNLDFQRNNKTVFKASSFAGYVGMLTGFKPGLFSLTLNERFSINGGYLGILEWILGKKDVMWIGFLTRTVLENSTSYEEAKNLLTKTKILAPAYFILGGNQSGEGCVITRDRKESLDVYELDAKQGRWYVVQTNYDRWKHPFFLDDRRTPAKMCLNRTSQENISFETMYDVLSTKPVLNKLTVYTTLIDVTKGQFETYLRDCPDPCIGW
How it was run: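 Lysate of cells overexpressing acid ceramidase (10 μg protein) preincubated with compound dose series 1 hr at RT in 25 mM NaAC, 100 mM NaCl, pH 4.5, then reacted 1 hr with 6.3 μM Rbm14-12. Stopped with NaIO4/glycine buffer pH 10.6, fluorescence ex360/em446; IC50 by four-parameter fit.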

[1] = Compound solubility in water

SMILES | IC50 (acid ceramidase) [nM] | solubility [1] [µg/mL]
CN1CCN(CCOc2nc3ccccc3n2C(=O)NCC#Cc2ccccc2)CC1 [Example 348, 2-(2-(4-Methylpiperazin-1-yl)ethoxy)-N-(3-phenylprop-2-yn-1-yl)-1H-benzo[d]imidazole-1-carboxamide] | < 200 | 8 (≈ 19.2 µM)
CN1CCN(C2CN(c3cccc4c3ncn4C(=O)NCCc3ccccc3)C2)CC1 [Example 349, 4-(3-(4-Methylpiperazin-1-yl)azetidin-1-yl)-N-phenethyl-1H-benzo[d]imidazole-1-carboxamide] | 200 to 1000 | 37 (≈ 88.4 µM)
CN1CCC2(CC1)CN(c1cccc3c1ncn3C(=O)NCCOc1ccccc1)C2 [Example 350, 4-(7-Methyl-2,7-diazaspiro[3.5]nonan-2-yl)-N-(2-phenoxyethyl)-1H-benzo[d]imidazole-1-carboxamide] | < 200 | 35 (≈ 83.4 µM)
CN1CC2(CCN(c3cccc4c3ncn4C(=O)NCCOc3ccccc3)CC2)C1 [Example 351, 4-(2-Methyl-2,7-diazaspiro[3.5]nonan-7-yl)-N-(2-phenoxyethyl)-1H-benzo[d]imidazole-1-carboxamide] | < 200 | 33 (≈ 78.7 µM)
CN1CCN(c2cccc3c2ncn3C(=O)NCCC#Cc2ccccc2)CC1 [Example 352, 4-(4-Methylpiperazin-1-yl)-N-(4-phenylbut-3-yn-1-yl)-1H-benzo[d]imidazole-1-carboxamide] | < 200 | 2 (≈ 5.16 µM)
CN(C)C1CN(c2cccc3c2ncn3C(=O)NCCOc2ccccc2)C1 [Example 353, 4-(3-(Dimethylamino)azetidin-1-yl)-N-(2-phenoxyethyl)-1H-benzo[d]imidazole-1-carboxamide] | < 200 | 16 (≈ 42.2 µM)
CNC1CN(c2cccc3c2ncn3C(=O)NCCOc2ccccc2)C1 [Example 354, 4-(3-(Methylamino)azetidin-1-yl)-N-(2-phenoxyethyl)-1H-benzo[d]imidazole-1-carboxamide] | > 1000 | 19 (≈ 52 µM)
CC(C)C#CCNC(=O)n1cnc2c(N3CC(N(C)C)C3)cccc21 [Example 355, 4-(3-(Dimethylamino)azetidin-1-yl)-N-(4-methylpent-2-yn-1-yl)-1H-benzo[d]imidazole-1-carboxamide] | 200 to 1000 | 22 (≈ 64.8 µM)
CN1CC2CC1CN2C1CN(c2cccc3c2ncn3C(=O)NCCOc2ccccc2)C1 (stereo not shown) [Example 356, 4-(3-(5-Methyl-2,5-diazabicyclo[2.2.1]heptan-2-yl)azetidin-1-yl)-N-(2-phenoxyethyl)-1H-benzo[d]imidazole-1-carboxamide] | < 200 | 46 (≈ 103 µM)
O=C(NCCc1ccccc1)n1c(OCCN2CCOCC2)nc2ccccc21 [Example 357, 2-(2-Morpholinoethoxy)-N-phenethyl-1H-benzo[d]imidazole-1-carboxamide] | 200 to 1000 | 6 (≈ 15.2 µM)

The next lines start with the values.

IC50 (acid ceramidase) [nM] | solubility [1] [µg/mL] | SMILES
200 to 1000 | 33 (≈ 93.9 µM) | CC(C)C#CCNC(=O)n1cnc2c(N3CC4(CN(C)C4)C3)cccc21 [Example 358, 4-(6-Methyl-2,6-diazaspiro[3.3]heptan-2-yl)-N-(4-methylpent-2-yn-1-yl)-1H-benzo[d]imidazole-1-carboxamide]
200 to 1000 | 23 (≈ 65.4 µM) | CC(C)C#CCNC(=O)n1cnc2c(N3CC4(CCN4C)C3)cccc21 [Example 359, 4-(1-Methyl-1,6-diazaspiro[3.3]heptan-6-yl)-N-(4-methylpent-2-yn-1-yl)-1H-benzo[d]imidazole-1-carboxamide]
< 200 | 27 (≈ 66.1 µM) | CN1CCN(C2CN(c3cccc4c3ncn4C(=O)NCC#CC(C)(C)C)C2)CC1 [Example 360, N-(4,4-Dimethylpent-2-yn-1-yl)-4-(3-(4-methylpiperazin-1-yl)azetidin-1-yl)-1H benzo[d]imidazole-1-carboxamide]
< 200 | 24 (≈ 54.2 µM) | CN1CC(N2CCN(c3cccc4c3ncn4C(=O)NCCC#Cc3ccccc3)CC2)C1 [Example 361]
